Reference: patent US5763435A, “Sulfate conjugates of ursodeoxycholic acid, and their beneficial use in inflammatory disorders” (priority 1995, dated 1998)
Entries after “also recorded” stand apart in the source; their conditions may differ.

Experiments:
[1] = Urinary excretion of UDCA after oral administration; type: in vivo, Sprague-Dawley rats
Description: (§1) Male Sprague-Dawley rats (Harlan Sprague-Dawley, Inc., Indianapolis, Ind.), weighing 210-290 g, were maintained on a 12-hour light-dark cycle and fed standard laboratory chow ad libitum for 3 days. The animals were then transferred to metabolic cages in which they were housed individually and fed the same diet. UDCA, UDCA 3-sulfate, UDCA 7-sulfate, and UDCA 3,7-disulfate were administered by gavage at a dose of 250 mg/day for 4 consecutive days. Each group comprised 3-6 rats. Body weights of the animals were measured each day. On day 5, the animals were killed by exsanguination under ether anesthesia. Plasma was collected and frozen at -20° C. The liver was removed, rinsed in normal saline, and flash-frozen in liquid nitrogen. Urine and feces were collected every 24 hours and frozen at -20° C. All animals received humane care in compliance with the "Guide for the Care and Use of Laboratory Animals" prepared by the National Academy of Sciences (National Institutes of Health publication no. 86-23, revised in 1985).
In each group, urine from all animals was pooled on the individual days of collection. Day 1 represented the baseline sample, and samples from days 2, 3 and 4 were obtained during bile acid administration. After the addition of nordeoxycholic acid (1 μg), bile acids were quantitatively extracted from portions of urine (3 mL) and plasma (1 mL) using Bond-Elut C18 cartridges. After liquid-solid extraction, isolation and separation of unconjugated and conjugated bile acids were achieved by lipophilic anion-exchange chromatography on Lipidex-DEAP. Solvolysis of bile acid conjugates and isolation of the hydrolyzed products were performed as described above, and bile acids were converted to volatile methyl ester-trimethylsilyl ether derivatives.
GC-MS analysis was performed using a Finnigan 4635 mass spectrometer (Finnigan Inc., San Jose, Calif.) that housed an identical gas chromatography column operated under the same conditions. Electron ionization (70 eV) mass spectra were recorded over the mass range of 50-800 daltons by repetitive scanning of the eluting components. Identification of bile acids was made on the basis of the gas chromatography retention index relative to a homologous series of n-alkanes, referred to as the methylene unit value, and the mass spectrum compared with authentic standards. Quantification of bile acids was achieved using gas chromatography by comparing the peak height response of the individual bile acids with the peak height response obtained from the internal standard.
Liquid secondary ionization mass spectrometry negative ion spectra of urine samples were obtained after placing approximately 1 μL of the methanolic extract onto a small drop of a glycerol/methanol matrix spotted on a stainless steel probe. This probe was introduced into the ion source of a VG Autospec Q mass spectrometer, and a beam of fast atoms of cesium, generated from cesium iodine (35 KeV), was fired at the target containing the sample. Negative ion spectra were obtained over the mass range of 50-1000 daltons.
Data are expressed as mean±SEM or as mean values of all animals when extracts were pooled before analysis. Results from different groups were compared using paired and unpaired two-tailed Student's t-test. P values of <0.05 were considered statistically significant.

[2] = system: fecal bile acids; assay: Fecal bile acid excretion after oral administration; type: in vivo, Sprague-Dawley rats; conditions: for Total fecal bile acid excretion: pooled feces day 4; for Fecal lithocholate/deoxycholate ratio (in words) / Fecal lithocholic acid excretion (in words): vs control
Description: as §1
Intestinal contents were weighed and dissected into small pieces. In each group, feces (100 mg) from all animals were pooled on day 4 of the study and then ground into a fine paste. All samples were sonicated and sequentially refluxed in 80% methanol for 2 hours and chloroform/methanol (1:1) for 1 hour. Samples were taken to dryness, and the dried extracts were resuspended in 80% methanol (20 mL). Fractions of the methanolic extract (1/40 of intestinal contents and 1/20 of feces samples) were removed and the internal standard nordeoxycholic acid (10 μg) was added. This extract was diluted with 0.01 mol/L acetic acid (20 mL) and passed first through a column of Lipidex 1000 (bed size, 4×1 cm; Packard Instrument Co., Groningen, The Netherlands) and then through a Bond-Elut C18, cartridge (Analytichem, Harbor City, Calif.). Bile acids were recovered by elution of the Lipidex 1000 column and the Bond-Elut cartridge with methanol (20 mL and 5 mL, respectively), and the combined extracts were taken to dryness. Unconjugated bile acids were isolated and separated from neutral sterol and conjugated bile acids by lipophilic anion exchange chromatography on diethylaminohydroxypropyl Sephadex LH-20 (Lipidex-DEAP; Package Instrument Co.). Recovery of unconjugated bile acids was achieved by elution with 0.1 mol/L acetic acid in 72% ethanol (7 mL) followed by evaporation of the solvents. Total conjugated bile acids were recovered with 9 mL of 0.3 mol/L acetic acid in 72% ethanol, pH 9.6. Salts were removed by passage through a Bond-Elut C18 cartridge after addition of nordeoxycholic acid (10 μg), and conjugated bile acids were recovered by elution with 5 mL of methanol. Solvolysis was performed in a mixture of methanol (1 mL), distilled tetrahydrofuran (9 mL), and 1 mol/L trifluoracetic acid in dioxane (0.1 mL) and heated to 45° C for 2 hours. After solvolysis, unconjugated bile acids were isolated by chromatography on Lipidex-DEAP. Methyl ester derivatives were prepared by dissolving the sample in methanol (0.3 mL) and reacting with 2.7 mL of freshly distilled ethereal diazomethane. After evaporation of the reagents, the methyl ester derivatives were converted to trimethylsilyl ethers by the addition of […] of Tri-Sil reagent (Pierce Chemicals, Rockford, Ill.). A column of Lipidex 5000 (Packard Instrument Co.) was used to remove derivatizing reagents and to purify the sample.
GC-MS analysis was performed using a Finnigan 4635 mass spectrometer (Finnigan Inc., San Jose, Calif.) that housed an identical gas chromatography column operated under the same conditions. Electron ionization (70 eV) mass spectra were recorded over the mass range of 50-800 daltons by repetitive scanning of the eluting components. […]

Row | Compound | Urinary excretion of sulfate conjugates of UDCA [1] | Urinary unconjugated UDCA excretion [1] | Fecal concentration of total UDCA (in words) [2] | Form of UDCA excreted in feces [2] | Total fecal bile acid excretion [2] | Fecal lithocholate/deoxycholate ratio (in words) [2] | Fecal deoxycholic acid (in words) [2] | Increase of fecal lithocholic acid/deoxycholic acid ratio vs normal rat feces [2] | Fecal lithocholic acid excretion (in words) [2]
1 | C[C@H](CCC(=O)O)[C@H]1CC[C@H]2[C@@H]3[C@@H](OS(=O)(=O)O)C[C@@H]4C[C@H](O)CC[C@]4(C)[C@H]3CC[C@]12C [UDCA-7S, ursodeoxycholic acid 7-sulfate] | 317.8 nmol/day | 1.8 nmol/day | markedly greater than that found in the feces of animals administered UDCA or UDCA 3-sulfate | excreted in feces virtually unchanged | 12.65 mg/g feces | no change in the lithocholate/deoxycholate ratio | – | – | –
2 | C[C@H](CCC(=O)O)[C@H]1CC[C@H]2[C@@H]3[C@@H](O)C[C@@H]4C[C@H](O)CC[C@]4(C)[C@H]3CC[C@]12C [UDCA, 3 alpha, 7 beta-dihydroxy-5 beta-cholan-24oic acid, reference compound] | 4.6 nmol/day | 642.7 nmol/day | – | almost exclusively found in the unconjugated form | 14.85 mg/g feces | markedly increased | increase in deoxycholic acid in the feces | more than 20 fold | increased markedly from control values; also recorded: large increase in the fecal lithocholic acid concentration
3 | C[C@H](CCC(=O)O)[C@H]1CC[C@H]2[C@@H]3[C@@H](O)C[C@@H]4C[C@H](OS(=O)(=O)O)CC[C@]4(C)[C@H]3CC[C@]12C [UDCA-3S, ursodeoxycholic acid 3-sulfate] | 2.7 nmol/day | 5.2 nmol/day | – | – | 10.70 mg/g feces | markedly increased | – | 11 fold | large increase in the fecal lithocholic acid concentration
4 | C[C@H](CCC(=O)O)[C@H]1CC[C@H]2[C@@H]3[C@@H](OS(=O)(=O)O)C[C@@H]4C[C@H](OS(=O)(=O)O)CC[C@]4(C)[C@H]3CC[C@]12C [UDCA-DS, ursodeoxycholic acid 3,7-disulfate] | 217.1 nmol/day | 1.3 nmol/day | markedly greater than that found in the feces of animals administered UDCA or UDCA 3-sulfate | excreted in feces virtually unchanged | 10.88 mg/g feces | no change in the lithocholate/deoxycholate ratio | – | – | –
